Reference: US6288091A, “Antiherpes virus compounds and methods for their preparation and use” (Boehringer Ingelheim Ltd., priority 1999, dated 2001)

What was measured:
HCMV (strain AD169) [1] = assay: Inhibition of HCMV replication, ELISA assay (Hs-68 cells); assay type: cell-based, Human Cytomegalovirus (HCMV); details: read-out: ELISA CMV EC50
Description: (§1) C) Inhibition of Human Cytomegalovirus (HCMV) Replication
(§2) The effect of compounds on the replication of HCMV has been measured by using an ELISA-based assay (ELISA) and a plaque reduction assay (PRA).
(§3) Hs-68 cells (ATCC # CRL 1635) were seeded in 96 well microtiter plates at 10,000 cells/well in 100 μL of DMEM medium (Gibco Canada Inc.) supplemented with 10% fetal bovine serum (FBS, Gibco Canada Inc.). The plates were incubated for 3 days at 37° to allow the cells to reach 80-90% confluency prior to the assay.
(§4) The medium was removed from wells by aspiration. The cells then were infected at a multiplicity of infection (MOI) of 0.01 PFU/cell with 50 μL of HCMV (strain AD169, ATCC VR-538) in DMEM medium supplemented with 5% heat inactivated FBS (assay medium). The virus was allowed to adsorb to cells for 2 h at 37°. Following viral adsorption, the medium was removed from the wells by aspiration. The cells were washed twice with 200 μL of assay medium to remove unabsorbed virus. The cells were then incubated with or without 100 μL of appropriate concentrations of test reagent in assay medium. After 8 days of incubation at 37°, the extent of viral replication was determined by an ELISA assay which detects the late structural protein p28 of HCMV.
(§5) Eight days after infection, the medium was aspirated from the wells. Non-specific binding sites were blocked by adding 200 μL of phosphate buffered saline containing 1% (w/v) bovine serum albumin (blocking buffer) to each well and incubating the plates for 30 min at room temperature. After removal of the blocking buffer by aspiration, the cells were fixed with 100 μL of cold ethanol-acetone solution (95:5) per well. The plates were placed at -20° for 30 min. The plates were washed 4 times with phosphate buffered saline containing 0.05% (v/v) polyoxyethylene sorbitan monolaurate (Tween®). Thereafter, 100 μL of mAb UL99 (Advanced Biotechnologies Inc., #13-130-100) recognizing HCMV protein p28 was added to each wells and plates were incubated for 2 h at room temperature. The plates were washed four times with 200 μL of the above-noted phosphate buffered saline/Tween-20® solution. The cells were then incubated with 100 μL of sheep anti-mouse IgGγ horseradish peroxidase conjugated for 2 h at room temperature. The plates were then washed four times with 200 μL of above-noted phosphate buffered saline/Tween-20® solution. Thereafter, 100 μL of ortho phenylenediamine dihydrochloride (OPD, Gibco Canada Inc.) solution was added to each well and the plates were agitated on a microplate shaker for 30 min in the dark. Color development was monitored at 450 nm using a microplate spectrophotometer.
(§6) The SAS program was used to calculate the % inhibition of viral replication and to generate EC50 values.
(§7) The EC50 values obtained according to this assay method for certain thiazolylphenyl derivatives of this invention are listed in the following tables under the heading ELISA CMV.

[2] = Inhibition of HCMV replication, plaque reduction assay (PRA, Hs-68 cells); assay type: cell-based, Human Cytomegalovirus (HCMV); details: human
In short: (§8)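 Hs-68 monolayers (80–90% confluent) were infected with ~50 PFU HCMV AD169 for 2 h at 37°, then given compound in DMEM/5% inactivated FBS, refreshed after 4 days and kept 4 more days. Plaques were counted after formaldehyde fixation and crystal violet staining. EC50 derives from percent plaque reduction versus untreated wells.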

HCMV (strain AD169) [3] = assay: as above; assay type: cell-based, Human Cytomegalovirus (HCMV); details: read-out: PRA CMV EC50
In short: as §8

HSV-1 strain F or KOS = assay: Inhibition of herpes simplex virus (HSV-1) replication in cell culture (BHK-21 cells, glycoprotein C ELISA); assay type: cell-based
In short: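 Replication readout: ELISA for HSV-1 late glycoprotein C (mAb C11, peroxidase-OPD, 450 nm) on glutaraldehyde-fixed cells. Monolayers (~50,000 cells/well) were infected with strain F or KOS (MOI 0.05 PFU/cell), then incubated 24 h at 37° with compound in 2% FBS α-MEM. EC50 derived from % inhibition.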

[4] = Inhibition of HCMV replication, ELISA assay (Hs-68 cells); assay type: cell-based, Human Cytomegalovirus (HCMV); details: human, read-out: Cytotoxic at this concentration (footnote *, ELISA CMV column)
Description: as §1, §2, §3, §4, §5, §6, §7

HSV-1 helicase-primase = target: T1, HSV-1 helicase-primase (Human herpesvirus 1, UniProt P10189+P10236); assay: HSV-1 DNA-dependent ATPase assay (inhibition of HSV-1 helicase-primase); assay type: biochemical
T1 construct: made in house; host or cells: Sf21 insect cells triply infected with recombinant baculoviruses (UL5, UL8, UL52)
In short: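 ATP hydrolysis was measured as inorganic phosphate (malachite green/molybdate, 650 nm) after 20 min at 34°. Reaction: 3 μg/mL purified Sf21-expressed UL5/UL8/UL52 helicase-primase, 25 μM single-stranded M13 DNA hybridized to 68-mer, 4 mM ATP, pH 7.5 HEPES buffer, 3.3% DMSO. Net absorbance change with and without inhibitor gave DNA-dependent ATPase activity.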

[5] = system: HSV-1 acyclovir-resistant mutant strain dlsptk; assay: Acyclovir-resistant HSV-1 cutaneous infection in immunodeficient nu/nu mice, strain dlsptk; assay type: in vivo, female nu/nu mice; details: oral gavage 100 mg/kg/day, tid for 10 days; strain dlsptk (FIG. 3)
Description: (§9) Animals were cutaneously inoculated with 10^7 PFU pf HSV-1 acyclovir resistant mutant viruses. The resulting cutaneous lesions were scored according to a subjective scoring system. The compound of Group 1 (Entry No. 29 in table 1) was administered orally (gavage) in an acidified vehicle (0.033 N aqueous HCl, tid for 10 days). Animals were similarly treated with acyclovir in 0.033 N aqueous HCl or only with the vehicle (0.033 N aqueous HCl). […] The dose-dependent effect of treatment with Entry No. 29 at 25 mg/kg/day (-.diamond-solid.-), 50 mg/kg/day (-.tangle-solidup.-), 75 mg/kg/day (-.quadrature.-), 100 mg/kg/day (-.circle-solid.-) or 125 mg/kg/day (-.box-solid.-), compared to treatment with vehicle alone (-.smallcircle.-), is shown in FIG. 2. The ED50 of Entry No. 29 was about 60 mg/kg/day. Similar experiments were done using the HSV-1 acyclovir-resistant mutant strain dlsptk (FIGS. 3 and 4). […] The dose-dependent effect of treatment with Entry No. 29 at 25 mg/kg/day (-.diamond-solid.-), 50 mg/kg/day (-.tangle-solidup.-), 75 mg/kg/day (-.quadrature.-), 100 mg/kg/day (-.circle-solid.-) or 125 mg/kg/day (-.box-solid.-), compared to treatment with vehicle alone (-.smallcircle.-), is shown in FIG. 4. […]

[6] = system: HSV-1 acyclovir-resistant mutant strain PAA^r 5; assay: Acyclovir-resistant HSV-1 cutaneous infection in immunodeficient nu/nu mice, strain PAAr 5; assay type: in vivo, female nu/nu mice
Description: as §9

HSV-2 HG-52 = assay: Mouse genital model, vaginal HSV-2 infection, oral administration; assay type: in vivo, Swiss Webster mouse; details: Human alphaherpesvirus 2, 3 h, Group 1 Table 1 entries, commencing three hours post infection, read-out: ED50, reduction of viral pathology
Description: Antiviral activity for Group 1 compounds was also observed in the mouse genital model of R. W. Sidwell et al., supra. Vaginal HSV-2 infection in the Swiss Webster mouse was initiated by vaginal irritation and instillation of HSV-2 (HSV-2 HG-52, 1×10^7 PFU). Viral pathology was measured as described above.

[7] = Human betaherpesvirus 5, AD169, Hs68, Group 2 Table 2 entries
[8] = Human betaherpesvirus 5, AD169, Hs68, Group 1 Table 1 entries
[9] = Human alphaherpesvirus 1, BHK-21, Group 1 Table 1 entries
[10] = Human betaherpesvirus 5, AD169, Hs68, Group 1 Table 2 entries
[11] = Group 2 Table 1 entries, read-out: Cytotoxic at this concentration (footnote *, PRA CMV)
[12] = Human betaherpesvirus 5, AD169, Hs68, Group 2 Table 1 entries
[13] = Group 1 Table 1 entries, read-out: Cytotoxic at this concentration (footnote *, PRA CMV)

T1 sequence (P10192 whole entry): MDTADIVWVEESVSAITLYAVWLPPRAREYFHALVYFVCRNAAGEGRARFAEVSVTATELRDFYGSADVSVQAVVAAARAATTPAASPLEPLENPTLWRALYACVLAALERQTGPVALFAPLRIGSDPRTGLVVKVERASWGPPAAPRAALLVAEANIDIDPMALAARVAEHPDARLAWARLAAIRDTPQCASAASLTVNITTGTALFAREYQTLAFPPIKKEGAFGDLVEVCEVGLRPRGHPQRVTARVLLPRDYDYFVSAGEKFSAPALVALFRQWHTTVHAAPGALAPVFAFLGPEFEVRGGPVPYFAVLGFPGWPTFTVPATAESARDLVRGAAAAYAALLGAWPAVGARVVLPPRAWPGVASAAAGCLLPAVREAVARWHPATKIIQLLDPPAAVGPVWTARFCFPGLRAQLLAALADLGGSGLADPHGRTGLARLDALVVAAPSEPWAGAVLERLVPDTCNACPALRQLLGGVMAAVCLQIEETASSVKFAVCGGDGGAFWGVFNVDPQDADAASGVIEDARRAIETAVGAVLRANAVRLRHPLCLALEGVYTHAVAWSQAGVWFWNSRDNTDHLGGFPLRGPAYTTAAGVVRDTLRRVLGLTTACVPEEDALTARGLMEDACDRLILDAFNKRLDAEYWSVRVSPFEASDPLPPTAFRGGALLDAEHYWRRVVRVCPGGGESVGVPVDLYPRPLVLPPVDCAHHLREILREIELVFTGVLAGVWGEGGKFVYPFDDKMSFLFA
T1 sequence (P10236 whole entry): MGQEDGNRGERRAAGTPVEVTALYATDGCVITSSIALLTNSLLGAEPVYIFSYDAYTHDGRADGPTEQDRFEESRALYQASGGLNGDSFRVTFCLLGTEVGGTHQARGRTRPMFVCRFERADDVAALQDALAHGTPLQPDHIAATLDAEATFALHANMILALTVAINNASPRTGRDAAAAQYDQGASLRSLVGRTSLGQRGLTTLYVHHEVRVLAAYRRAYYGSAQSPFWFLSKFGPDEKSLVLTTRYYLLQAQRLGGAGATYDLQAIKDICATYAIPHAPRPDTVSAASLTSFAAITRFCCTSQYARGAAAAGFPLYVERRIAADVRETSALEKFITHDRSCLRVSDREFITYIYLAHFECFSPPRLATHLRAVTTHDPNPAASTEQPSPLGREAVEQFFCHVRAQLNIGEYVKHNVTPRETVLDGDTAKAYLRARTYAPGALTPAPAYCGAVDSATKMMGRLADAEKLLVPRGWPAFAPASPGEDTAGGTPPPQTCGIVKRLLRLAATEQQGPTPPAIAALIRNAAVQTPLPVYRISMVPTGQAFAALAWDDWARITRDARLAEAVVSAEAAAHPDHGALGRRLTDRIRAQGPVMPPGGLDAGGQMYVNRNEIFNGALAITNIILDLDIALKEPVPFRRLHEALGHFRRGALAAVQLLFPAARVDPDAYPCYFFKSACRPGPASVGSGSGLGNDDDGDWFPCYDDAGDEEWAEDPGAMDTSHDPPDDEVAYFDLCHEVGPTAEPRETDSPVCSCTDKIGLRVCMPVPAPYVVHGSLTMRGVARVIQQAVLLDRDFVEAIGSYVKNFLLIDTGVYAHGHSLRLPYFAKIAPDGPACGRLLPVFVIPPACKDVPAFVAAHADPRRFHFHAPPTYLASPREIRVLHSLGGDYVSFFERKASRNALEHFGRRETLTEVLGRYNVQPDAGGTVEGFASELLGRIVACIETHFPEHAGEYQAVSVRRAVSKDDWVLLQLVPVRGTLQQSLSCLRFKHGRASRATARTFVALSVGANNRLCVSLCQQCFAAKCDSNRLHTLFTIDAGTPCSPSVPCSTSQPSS
T1 sequence (P10189 whole entry): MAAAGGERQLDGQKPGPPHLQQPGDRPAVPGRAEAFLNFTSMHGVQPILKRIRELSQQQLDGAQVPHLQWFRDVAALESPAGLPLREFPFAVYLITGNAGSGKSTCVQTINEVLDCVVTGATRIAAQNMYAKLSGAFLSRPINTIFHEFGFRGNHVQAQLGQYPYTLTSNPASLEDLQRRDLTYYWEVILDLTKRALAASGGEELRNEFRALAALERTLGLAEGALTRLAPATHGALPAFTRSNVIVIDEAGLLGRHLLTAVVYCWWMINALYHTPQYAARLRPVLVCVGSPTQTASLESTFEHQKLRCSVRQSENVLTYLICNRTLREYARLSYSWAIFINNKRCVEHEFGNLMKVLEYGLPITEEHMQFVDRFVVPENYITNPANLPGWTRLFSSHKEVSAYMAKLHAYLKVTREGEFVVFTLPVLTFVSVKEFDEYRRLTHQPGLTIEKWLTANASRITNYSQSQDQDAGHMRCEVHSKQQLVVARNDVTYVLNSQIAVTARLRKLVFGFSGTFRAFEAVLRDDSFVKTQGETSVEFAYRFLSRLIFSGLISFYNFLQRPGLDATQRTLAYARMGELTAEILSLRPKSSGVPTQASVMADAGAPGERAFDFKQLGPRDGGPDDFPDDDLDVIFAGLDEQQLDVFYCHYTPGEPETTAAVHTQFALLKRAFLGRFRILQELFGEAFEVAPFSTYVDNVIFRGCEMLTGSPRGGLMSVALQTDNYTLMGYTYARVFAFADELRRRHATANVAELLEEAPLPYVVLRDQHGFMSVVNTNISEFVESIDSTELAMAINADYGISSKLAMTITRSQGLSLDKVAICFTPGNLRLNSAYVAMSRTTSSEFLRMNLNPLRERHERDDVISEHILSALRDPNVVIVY

Nc1nc(-c2ccc(NC(=O)C(=O)N(Cc3ccccc3)Cc3ccccc3)cc2)cs1 [Example 2]
EC50 (HCMV (strain AD169) [1]; [7]): 10 µM | MCC at 192 h ([2]; Group 2 Table 2 entries, read-out: Cytotoxic at this concentration (footnote *, PRA CMV)): 12 µM | EC50 (HCMV (strain AD169) [3]; [7]): 12 µM | EC50 (HSV-1 strain F or KOS; Human alphaherpesvirus 1, BHK-21, Group 2 Table 2 entries): 770 nM

CCCC(CCC)N(CC(=O)Nc1ccc(-c2csc(N)n2)cc1)C(=O)OC(C)(C)C [Example 111]
MCC at 192 h ([4]; Group 1 Table 1 entries): 4 µM | EC50 (HCMV (strain AD169) [1]; [8]): 4 µM | IC50 (HSV-1 helicase-primase; Group 1 Table 1 entries): 370 nM | EC50 (HSV-1 strain F or KOS; [9]): 240 nM

CC(C)(C)OC(=O)N(CCC(=O)Nc1ccc(-c2csc(N)n2)cc1)C1CCc2ccccc21 (centres unmarked) [Example 13]
EC50 (HCMV (strain AD169) [1]; [10]): 37 µM | MCC at 192 h ([2]; Group 1 Table 2 entries, read-out: Cytotoxic at this concentration (footnote, PRA CMV)): 9 µM | EC50 (HCMV (strain AD169) [3]; [10]): 9 µM | EC50 (HSV-1 strain F or KOS; Human alphaherpesvirus 1, BHK-21, Group 1 Table 2 entries): 3400 nM

CN(C)c1ccc(CNC(=O)Nc2ccc(-c3csc(N)n3)cc2)cc1 [Example 25]
MCC at 192 h [2, 11]: 18 µM | EC50 (HCMV (strain AD169) [3]; [12]): > 18 µM | IC50 (HSV-1 helicase-primase; Group 2 Table 1 entries): 2900 nM

Nc1nc2c(ncn2COCCO)c(=O)[nH]1 [acyclovir, reference compound]
effect on cutaneous lesions [5]: no effect on cutaneous lesions | effect on cutaneous lesions ([6]; oral gavage 100 mg/kg/day, tid for 10 days, strain PAAr 5 (FIG. 1)): no effect on cutaneous lesions

Nc1nc(-c2ccc(NC(=O)CNCc3ccccn3)cc2)cs1 [Example 12]
MCC at 192 h [2, 13]: 84 µM | EC50 (HCMV (strain AD169) [3]; [8]): 84 µM | IC50 (HSV-1 helicase-primase; Group 1 Table 1 entries): 8000 nM | EC50 (HSV-1 strain F or KOS; [9]): 1500 nM

Nc1nc(-c2ccc(NC(=O)CN(Cc3ccccc3)C(=O)c3ccncc3)cc2)cs1 [Entry 29]
ED50 ([6]; Human alphaherpesvirus 1, po, 240 h, read-out: ED50, cutaneous lesions): ~60 mg/kg | ED50 (HSV-2 HG-52): 60 mg/kg

Nc1nc(-c2ccc(NC(=O)NCc3cccc(F)c3)cc2)cs1 [Example 22]
MCC at 192 h [2, 11]: 8 µM | EC50 (HCMV (strain AD169) [3]; [12]): > 8 µM | IC50 (HSV-1 helicase-primase; Group 2 Table 1 entries): 1300 nM

Nc1nc(-c2ccc(NC(=O)NCc3ccc(Cl)cc3)cc2)cs1 [Example 21]
MCC at 192 h [2, 11]: 1 µM | EC50 (HCMV (strain AD169) [3]; [12]): > 1 µM | IC50 (HSV-1 helicase-primase; Group 2 Table 1 entries): 7200 nM

Nc1nc(-c2ccc(NC(=O)[C@H](Cc3ccccc3)NC(=O)C3CCCCC3)cc2)cs1 [Example 1]
MCC at 192 h ([4]; Group 1 Table 5 entries): 14 µM | EC50 (HCMV (strain AD169) [1]; Human betaherpesvirus 5, AD169, Hs68, Group 1 Table 5 entries): 14 µM | IC50 (HSV-1 helicase-primase; Group 1 Table 5 entries): 52 nM | EC50 (HSV-1 strain F or KOS; Human alphaherpesvirus 1, BHK-21, Group 1 Table 5 entries): 79 nM

Nc1nc(-c2ccc(NC(=O)NCCCn3ccnc3)cc2)cs1 [Example 10]
MCC at 192 h [2, 11]: 48 µM | EC50 (HCMV (strain AD169) [3]; [12]): > 48 µM | IC50 (HSV-1 helicase-primase; Group 2 Table 1 entries): 4700 nM

Nc1nc(-c2ccc(NC(=O)NCc3ccccc3)cc2)cs1 [Example 20]
MCC at 192 h [2, 11]: 45 µM | EC50 (HCMV (strain AD169) [3]; [12]): > 45 µM | IC50 (HSV-1 helicase-primase; Group 2 Table 1 entries): 900 nM

Cc1ccccc1CN(CC(=O)Nc1ccc(-c2csc(N)n2)cc1)C(=O)Cc1ccccn1 [Example 127]
EC50 (HCMV (strain AD169) [1]; [8]): 8.8 µM | MCC at 192 h [2, 13]: 25 µM | EC50 (HCMV (strain AD169) [3]; [8]): 25 µM | IC50 (HSV-1 helicase-primase; Group 1 Table 1 entries): 990 nM

Nc1nc(-c2ccc(NC(=O)NCCc3ccccn3)cc2)cs1 [Example 3]
MCC at 192 h [2, 11]: 93 µM | EC50 (HCMV (strain AD169) [3]; [12]): > 93 µM | IC50 (HSV-1 helicase-primase; Group 2 Table 1 entries): 5200 nM | EC50 (HSV-1 strain F or KOS; Human alphaherpesvirus 1, BHK-21, Group 2 Table 1 entries): 3600 nM

Nc1nc(-c2ccc(NC(=O)NCCN(Cc3ccccc3)Cc3ccccc3)cc2)cs1 [Example 16]
MCC at 192 h [2, 11]: 5 µM | EC50 (HCMV (strain AD169) [3]; [12]): > 5 µM | IC50 (HSV-1 helicase-primase; Group 2 Table 1 entries): 1600 nM
